The results in this text go back to patent US11680056B2, “MK2 inhibitors and uses thereof” (Xinthera, Inc., priority 2021, dated 2023).

Test [1] addresses p38a/MK2 (Homo sapiens (Human), UniProt P49137+Q16539). In words: p38a/MK2 biochemical assay: activation of MK2 by p38, FITC-HSP27 peptide phosphorylation (IMAP FP). Conditions: 10-point 1:3 dilution, 60 pM active p38a, 1 nM inactive MK2, 10 μM ATP, 2 h incubation.
The target in test [2] is p38a/PRAK (Homo sapiens (Human), UniProt Q16539). In words: p38a/PRAK biochemical assay: activation of PRAK by p38, FITC-HSP27 peptide phosphorylation (IMAP FP). Conditions: 10-point 1:3 dilution, top dose 300 μM; 60 pM active p38a, 1 nM inactive PRAK, 10 μM ATP, 2 h incubation; read-out: p38a/PRAK Enzyme pIC50 (converted). In short, it runs like this:
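GST-tagged MK2 (F46–H400) and PRAK (M1–Q471), expressed in E. coli, activated by p38 and phosphorylate FITC-HSP27 peptide over 2 h with compound; readout by IMAP fluorescence polarisation (ex 485/em 528 nm). Ten-point 1:3 dilutions, top dose 1 μM for MK2 and 300 μM for PRAK. IC50 after vehicle normalisation; selectivity = IC50(PRAK)/IC50(MK2).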

The mark [3] stands for this setting: top dose 1 μM, read-out: p38a/MK2 (1 μM) Enzyme pIC50 (converted).
The mark [4] stands for this setting: top dose 10 μM, read-out: p38a/MK2 (10 μM) Enzyme pIC50 (converted).

Read-outs that look alike come from different tables or passages of the source.

Chain of p38a/PRAK (Q16539 whole entry): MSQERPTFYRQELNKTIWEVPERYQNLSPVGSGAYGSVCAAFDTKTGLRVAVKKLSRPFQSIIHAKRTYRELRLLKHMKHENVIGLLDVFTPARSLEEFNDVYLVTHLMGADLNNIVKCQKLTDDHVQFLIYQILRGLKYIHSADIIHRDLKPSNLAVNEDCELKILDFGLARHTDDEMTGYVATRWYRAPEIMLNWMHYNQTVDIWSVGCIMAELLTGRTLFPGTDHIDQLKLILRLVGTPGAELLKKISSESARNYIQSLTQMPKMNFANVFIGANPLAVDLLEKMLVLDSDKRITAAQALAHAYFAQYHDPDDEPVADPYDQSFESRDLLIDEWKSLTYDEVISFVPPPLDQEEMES
Chain of p38a/MK2 (P49137 46-400): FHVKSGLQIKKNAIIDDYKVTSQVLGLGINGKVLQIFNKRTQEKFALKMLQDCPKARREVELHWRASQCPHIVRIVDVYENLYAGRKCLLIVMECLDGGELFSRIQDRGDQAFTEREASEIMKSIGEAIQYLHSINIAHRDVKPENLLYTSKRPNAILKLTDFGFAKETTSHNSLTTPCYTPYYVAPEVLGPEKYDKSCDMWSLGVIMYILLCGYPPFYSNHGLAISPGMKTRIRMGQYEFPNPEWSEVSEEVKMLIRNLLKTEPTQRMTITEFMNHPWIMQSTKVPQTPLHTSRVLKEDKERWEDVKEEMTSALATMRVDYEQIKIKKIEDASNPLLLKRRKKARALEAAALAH
Chain of p38a/MK2 (Q16539 whole entry): as the sequence (Q16539 whole entry) above

`[2H]C([2H])(Oc1cc(C)n(-c2c(C)cnc(-c3ccnc(C(C)(C)O)n3)c2F)c(=O)c1Cl)c1ncc(F)cc1F` (single isomer, unassigned) [Example 57A, rel-3-chloro-4-[(3,5-difluoropyridin-2-yl)(2H2)methoxy]-3′-fluoro-2′-[2-(2-hydroxypropan-2-yl)pyrimidin-4-yl]-5′,6-dimethyl-[1,4′-bipyridin]-2-one]: the IC50 is 1.26 nM in test [1] (setting [3]) and 794 nM in test [2].

Regarding `Cc1cnc(-c2ccc3c(n2)[C@@H](O)CC3)cc1-n1c(C)cc(OCc2ncc(F)cc2F)c(Cl)c1=O` (single isomer, unassigned) [Example 18B], the IC50 in test [1] (setting [4]) was above 10000 nM; in test [2], above 316000 nM.

Consider `Cc1sc(-c2ccnc(C(C)(C)O)n2)cc1-n1c(C)cc(OCc2ncc(F)cc2F)c(Cl)c1=O` (single isomer, unassigned) [Example 33B, 3-chloro-4-[(3,5-difluoropyridin-2-yl)methoxy]-1-{5-[2-(2-hydroxypropan-2-yl)pyrimidin-4-yl]-2-methylthiophen-3-yl}-6-methylpyridin-2-one], for which the “p38a/MK2 (10 μM) Enzyme pIC50” value in test [1] (top dose 10 μM) turned out to be 6.5. For the same compound, the IC50 in test [2] is 50100 nM.

As to `Cc1cnc(-c2ccnc(C(C)(C)O)n2)cc1-n1c(C)cc(COc2ncc(F)cc2F)c(Cl)c1=O` (atropisomer, axis not shown) [Example 15, 3-chloro-4-{[(3,5-difluoropyridin-2-yl)oxy]methyl}-2′-[2-(2-hydroxypropan-2-yl)pyrimidin-4-yl]-5′,6-dimethyl-[1,4′-bipyridin]-2-one], the “p38a/MK2 (10 μM) Enzyme pIC50” value in test [1] (top dose 10 μM) was 5.4. Moreover, the IC50 in test [2] was 158000 nM.

Consider `Cc1cnc(-c2ccnc([C@@](C)(O)C3CC3)n2)cc1-n1c(C)cc(OCc2ncc(F)cc2F)c(Cl)c1=O` (racemic) [Example 6, 3-chloro-2′-[2-(1-cyclopropyl-1-hydroxyethyl)pyrimidin-4-yl]-4-[(3,5-difluoropyridin-2-yl)methoxy]-5′,6-dimethyl-[1,4′-bipyridin]-2-one], for which the “p38a/MK2 (10 μM) Enzyme pIC50” value in test [1] (top dose 10 μM) is on record as 7.5. Also, the IC50 in test [2] is 12600 nM.

For `Cc1cnc(-n2ccc(C(C)(C)CO)n2)cc1-n1c(C)cc(OCc2ncc(F)cc2F)c(Cl)c1=O` (single isomer, unassigned) [Example 37B, rel-3-chloro-4-[(3,5-difluoropyridin-2-yl)methoxy]-2′-[3-(1-hydroxy-2-methylpropan-2-yl)pyrazol-1-yl]-5′,6-dimethyl-[1,4′-bipyridin]-2-one], the IC50 is above 1000 nM in test [1] (setting [3]) and above 316000 nM in test [2].

Turning to `[2H]C([2H])(Oc1cc(C)n(-c2c(C)cnc(-c3ccnc(C(O)(C([2H])([2H])[2H])C([2H])([2H])[2H])n3)c2F)c(=O)c1Cl)c1ncc(F)cc1F` (single isomer, unassigned) [Example 67B, rel-3-chloro-4-((3,5-difluoropyridin-2-yl)methoxy-d2)-3′-fluoro-2′-(2-(2-hydroxypropan-2-yl-1,1,1,3,3,3-d6)pyrimidin-4-yl)-5′,6-dimethyl-2H-[1,4′-bipyridin]-2-one], the IC50 in test [1] (setting [3]) was 79.4 nM; in test [2], 31600 nM.

For the compound `Cc1cnc(-c2cccc([C@@](C)(O)CO)n2)cc1-n1c(C)cc(OCc2ncc(F)cc2F)c(Cl)c1=O` (single isomer, unassigned) [Example 36B, rel-3-chloro-4-[(3,5-difluoropyridin-2-yl)methoxy]-2′-[6-(1,2-dihydroxypropan-2-yl)pyridin-2-yl]-5′,6-dimethyl-[1,4′-bipyridin]-2-one], the values for the IC50 in test [1] (setting [3]) and in test [2] were 6.31 nM and 15800 nM, respectively.

Regarding `Cc1cnc(-c2ccnc(C(C)(C)C(F)F)n2)cc1-n1c(C)cc(OCc2ncc(F)cc2F)c(Cl)c1=O` (single isomer, unassigned) [Example 5B, rel-3-chloro-2′-[2-(1,1-difluoro-2-methylpropan-2-yl)pyrimidin-4-yl]-4-[(3,5-difluoropyridin-2-yl)methoxy]-5′,6-dimethyl-[1,4′-bipyridin]-2-one], the IC50 was 2000 nM in test [1] (setting [4]) and above 316000 nM in test [2].

On to `[2H]C([2H])(Oc1cc(C)n(-c2c(C)cnc(-c3ccnc(C(C)(C)O)c3F)c2F)c(=O)c1Cl)c1ncc(F)cc1F` (single isomer, unassigned) [Example 65B, rel-3-chloro-1-[3,3′-difluoro-2′-(2-hydroxypropan-2-yl)-5-methyl-[2,4′-bipyridin]-4-yl]-4-[(3,5-difluoropyridin-2-yl)(2H2)methoxy]-6-methylpyridin-2-one], for which the IC50 is above 100 nM in test [1] (setting [3]) and 79400 nM in test [2].

For the compound `Cc1cnc(-n2ccc(C(C)(C)O)n2)c(F)c1-n1c(C)cc(OCc2ncc(F)cc2F)c(Cl)c1=O` (single isomer, unassigned) [Example 54A, rel-3-chloro-4-((3,5-difluoropyridin-2-yl)methoxy)-3′-fluoro-2′-(3-(2-hydroxypropan-2-yl)-1H-pyrazol-1-yl)-5′,6-dimethyl-2H-[1,4′-bipyridin]-2-one], the IC50 is above 1000 nM in test [1] (setting [3]) and above 316000 nM in test [2].

Regarding `[2H]C([2H])([2H])C(O)(c1nccc(-c2ncc(C)c(-n3c(C)cc(OCc4ncc(F)cc4F)c(Cl)c3=O)c2F)n1)C([2H])([2H])[2H]` (single isomer, unassigned) [Example 66B, rel-3-chloro-4-((3,5-difluoropyridin-2-yl)methoxy)-3′-fluoro-2′-(2-(2-hydroxypropan-2-yl-1,1,1,3,3,3-d6)pyrimidin-4-yl)-5′,6-dimethyl-2H-[1,4′-bipyridin]-2-one], the IC50 was 6.31 nM in test [1] (setting [3]) and 1000 nM in test [2].

On to `Cc1cnc(-c2ccnc(C3(CO)CC3)n2)cc1-n1c(C)cc(OCc2ncc(F)cc2F)c(Cl)c1=O` (single isomer, unassigned) [Example 21B, rel-3-chloro-4-((3,5-difluoropyridin-2-yl)methoxy)-2′-(2-(1-(hydroxymethyl)cyclopropyl)pyrimidin-4-yl)-5′,6-dimethyl-2H-[1,4′-bipyridin]-2-one], for which the IC50 in test [1] (setting [3]) was 3.16 nM; in test [2], 2000 nM.

Take `Cc1cnc(-c2cncc(C(C)(C)O)n2)cc1-n1c(C)cc(OCc2ncc(F)cc2F)c(Cl)c1=O` (single isomer, unassigned) [Example 51B, rel-3-chloro-4-[(3,5-difluoropyridin-2-yl)methoxy]-2′-[6-(2-hydroxypropan-2-yl)pyrazin-2-yl]-5′,6-dimethyl-[1,4′-bipyridin]-2-one]: the IC50 in test [1] (setting [3]) was above 1000 nM; in test [2], above 316000 nM.

In the case of `Cc1cnc(-c2ccnc(C3(CO)CC3)n2)cc1-n1c(C)cc(OCc2ncc(F)cc2F)c(Cl)c1=O` (single isomer, unassigned) [Example 21A, rel-3-chloro-4-((3,5-difluoropyridin-2-yl)methoxy)-2′-(2-(1-(hydroxymethyl)cyclopropyl)pyrimidin-4-yl)-5′,6-dimethyl-2H-[1,4′-bipyridin]-2-one], the values for the IC50 in test [1] (setting [4]) and in test [2] were above 10000 nM and above 316000 nM, respectively.

With `[2H]C([2H])(Oc1cc(C)n(-c2c(C)cnc(-c3ccnc(C(C)(C)CO)n3)c2F)c(=O)c1Cl)c1ncc(F)cc1F` (single isomer, unassigned) [Example 59A, rel-3-chloro-4-((3,5-difluoropyridin-2-yl)methoxy-d2)-3′-fluoro-2′-(2-(1-hydroxy-2-methylpropan-2-yl)pyrimidin-4-yl)-5′,6-dimethyl-2H-[1,4′-bipyridin]-2-one], the values for the IC50 in test [1] (setting [3]) and in test [2] were above 1000 nM and above 316000 nM, respectively.

As for `Cc1cnc(-c2ccnc([C@@H](O)C3CC3)n2)cc1-n1c(C)cc(OCc2ncc(F)cc2F)c(Cl)c1=O` (single isomer, unassigned) [Example 35D, rel-3-chloro-2′-{2-[cyclopropyl(hydroxy)methyl]pyrimidin-4-yl}-4-[(3,5-difluoropyridin-2-yl)methoxy]-5′,6-dimethyl-[1,4′-bipyridin]-2-one], the IC50 in test [1] (setting [3]) was above 1000 nM; in test [2], above 316000 nM.

In the case of `Cc1cnc(-c2ccnc(C(C)(C)O)c2F)cc1-n1c(C)cc(OCc2ncc(F)cc2F)c(Cl)c1=O` (atropisomer, axis not shown) [Example 56B, 3-chloro-4-[(3,5-difluoropyridin-2-yl)methoxy]-1-[3′-fluoro-2′-(2-hydroxypropan-2-yl)-5-methyl-[2,4′-bipyridin]-4-yl]-6-methylpyridin-2-one], the IC50 in test [1] (setting [3]) was above 1000 nM; in test [2], above 316000 nM.

Take `COc1cnc(-c2ccnc(C(C)(C)O)n2)cc1-n1c(C)cc(OCc2ncc(F)cc2F)c(Cl)c1=O` (atropisomer, axis not shown) [Example 7, 3-chloro-4-[(3,5-difluoropyridin-2-yl)methoxy]-2′-[2-(2-hydroxypropan-2-yl)pyrimidin-4-yl]-5′-methoxy-6-methyl-[1,4′-bipyridin]-2-one]: the IC50 in test [1] (setting [4]) is 501 nM; in test [2], 63100 nM.

As to `Cc1cnc(-c2nc(C(C)(C)O)n(C)n2)cc1-n1c(C)cc(OCc2ncc(F)cc2F)c(Cl)c1=O` (single isomer, unassigned) [Example 42A, rel-3-chloro-4-[(3,5-difluoropyridin-2-yl)methoxy]-2′-[5-(2-hydroxypropan-2-yl)-1-methyl-1,2,4-triazol-3-yl]-5′,6-dimethyl-[1,4′-bipyridin]-2-one], the IC50 was 501 nM in test [1] (setting [3]) and 6310 nM in test [2].
